According to US9221985B2, “Solvent compositions” (TBF Environmental Technology, Inc., priority 2013, dated 2015):
Read-outs that look alike come from different tables or passages of the source.

How the values were obtained:
[1] = Hansen solubility parameters
From the text: In some embodiments, a solvent composition according to the present disclosure includes an acetate ester, such as MA, EA, or TBAc, in combination with one or more additional reagents to increase dispersion and decrease hydrogen bonding and/or to decrease the polarity of the solvent composition.

[2] = Physical/chemical characteristics of the solvents (specific gravity, flash point, boiling point, viscosity, surface tension, volatility); conditions: for Surface tension: at 20° C.
[3] = Evaporation rate relative to n-butyl acetate / xylene; assay type: physicochemical
From the text: […]. […] Without being bound to any particular theory, the “tail” solvent may slow the drying of a coating towards the end, allowing time for it to flow and level, and preventing dry spray, thereby improving the film appearance.
The evaporation rate of Formulation 1vs xylene was examined (FIG. 1). Formulation 1 was faster evaporating than xylene by a factor of 1.63-1.65. However it was apparent that the evaporation rate of Formulation 1 slowed towards the end. This slower “Tail” would aid in flow and leveling and help prevent dry spray.

[4] = cited from earlier work
[5] = Solvency or reduction characteristics: viscosity of epoxy resin reduced with solvent; assay type: physicochemical
[6] = Viscosity of Paraloid B-66 DMC acrylic resin with reduction in solids; assay type: physicochemical
[7] = relative to n-butyl acetate = 1
[8] = EPON 828 reduced to 95% solids content by weight
[9] = reduced to 35.0% non-volatile with the solvent
[10] = reduced to 40.0% non-volatile with the solvent

Row | Molecule | δD (dispersion) [1] [cal^1/2 cm^−3/2] | δH (hydrogen bonding) [1] [cal^1/2 cm^−3/2] | δP (polar) [1] [cal^1/2 cm^−3/2] | Viscosity @ 20° C. [2] | Specific Gravity (@25° C.) [2] | Flashpoint (TCC) [2] | Surface tension [2] | Evaporation rate (n-butyl acetate = 1) [3, 7] | Boiling Point [2] | Viscosity @ 20 RPM ([5]; EPON 828, 50% solids content) [cps] | Viscosity @ 20 RPM ([5]; EPON 828, 55% solids content) [cps] | Viscosity @ 20 RPM ([5]; EPON 828, 60% solids content) [cps] | Viscosity @ 20 RPM ([5]; EPON 828, 65% solids content) [cps] | Viscosity @ 20 RPM ([5]; EPON 828, 70% solids content) [cps] | Viscosity @ 20 RPM ([5]; EPON 828, 75% solids content) [cps] | Viscosity @ 20 RPM ([5]; EPON 828, 80% solids content) [cps] | Viscosity @ 20 RPM ([5]; EPON 828, 85% solids content) [cps] | Viscosity @ 20 RPM ([5]; EPON 828, 90% solids content) [cps] | Viscosity of Paraloid B-66 DMC [6, 9] [cps] | Viscosity of Paraloid B-66 DMC [6, 10] [cps] | also measured
1 | Cc1ccccc1 [Toluene, toluene] | 8.8 | 0.98 | 0.68 | 0.59 (mPa · s) cP | 0.86 | 16 °C | 27.73 dyn/cm | 1.9 |  |  |  |  |  |  |  |  |  |  |  |  | 
2 | COC(C)=O [MA, methyl acetate] | 7.6 | 3.7 | 3.5 | 0.37 (mPa · s) cP | 0.93 | −4 °C | 24.8 dyn/cm | 6.2 | 56 °C |  |  |  |  |  |  |  |  |  |  |  | δ (Hansen solubility parameter) [1]: 9.5 cal^1/2 cm^−3/2; solubility in water ([4]; in water at room temperature): 25%; stability ([4]; strong aqueous bases or aqueous acids): not stable in the presence of strong aqueous bases or aqueous acids
3 | CC(=O)OC(C)(C)C [TBAc, tert-butyl acetate] | 7 | 2.9 | 1.7 | 0.7 (mPa · s) cP | 0.87 | 16.7 °C | 22.4 dyn/cm |  | 98 °C | 15 | 19 | 22 | 26 | 81 | 93 | 192 | 430 | 1150 | 290 | 780 | Viscosity @ 20 RPM [5, 8]: 4250 cps; Evaporation rate (n-butyl acetate = 1) [3]: 2.8
4 | FC(F)(F)c1ccc(Cl)cc1 [PCBTF, parachlorobenzotrifluoride] | 8.8 | 1.9 | 2.9 | 0.79 (mPa · s) cP | 1.34 | 109 °C | 25 dyn/cm | 0.9 | 139 °C | 27 | 38 | 52 | 91 | 153 | 278 | 544 | 1010 | 1900 | 450 | 1050 | δ (Hansen solubility parameter) [1]: 9.15 cal^1/2 cm^−3/2; Viscosity @ 20 RPM [5, 8]: 5125 cps
5 | xylene [Xylenes] | 9.2 | 1.15 | 1.3 | 0.34-0.8 (mPa · s) cP | 0.87 | 17-25 °C | 25.32-28.27 dyn/cm |  | 110.6-144 °C | 13 | 17 | 19 | 28 | 40 | 76 | 148 | 330 | 880 | 580 | 1500 | Viscosity @ 20 RPM [5, 8]: 3350 cps; Flashpoint (TCC) ([2]; listed as xylene): 30 °C; Evaporation rate (n-butyl acetate = 1) [3]: 0.9
6 | COC(=O)OC [DMC, dimethyl carbonate] |  |  |  |  |  |  |  |  |  |  |  |  |  |  |  |  |  |  | 370 | 970 | 
